According to PubChem BioAssay (NCI):
Where “and” joins values, the source holds several entries; their conditions need not be identical. Equal values may be shown once.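 Following 48 hours of exposure in 96-well plates, responses at five concentrations were used to interpolate endpoints linearly. GI50 is the concentration that inhibits growth by half. TGI: total growth inhibition.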

Legend:
Assay in all cases: DTP human tumour cell line panel, 48 h
786-0 renal = system: 786-0 renal
A498 renal = system: A498 renal
HCC-2998 colon = system: HCC-2998 colon
HCT-116 colon = system: HCT-116 colon
HCT-15 colon = system: HCT-15 colon
IGROV1 ovarian = system: IGROV1 ovarian
SN12C renal = system: SN12C renal
SNB-75 CNS = system: SNB-75 CNS
UACC-257 melanoma = system: UACC-257 melanoma
UO-31 renal = system: UO-31 renal

Structure (SMILES) | GI50 (786-0 renal) [µM] | TGI (786-0 renal) [µM] | TGI (A498 renal) [µM] | TGI (HCC-2998 colon) [µM] | GI50 (HCT-116 colon) [µM] | TGI (HCT-116 colon) [µM] | GI50 (HCT-15 colon) [µM] | TGI (HCT-15 colon) [µM] | GI50 (IGROV1 ovarian) [µM] | TGI (IGROV1 ovarian) [µM] | GI50 (SN12C renal) [µM] | TGI (SN12C renal) | GI50 (SNB-75 CNS) [µM] | TGI (SNB-75 CNS) | GI50 (UACC-257 melanoma) [µM] | TGI (UACC-257 melanoma) [µM] | GI50 (UO-31 renal) [µM] | TGI (UO-31 renal) [µM] | GI50 (A498 renal) [µM] | GI50 (HCC-2998 colon) [µM]
C/C1=C\CC[C@@]2(C)O[C@@H]2C[C@@H]2[C@H](C/C(C)=C/CC1)OC(=O)C21CCN=N1 (some centres not stated) | > 100 | > 100 | > 100 | > 75 | > 100 | > 100 | > 100 | > 100 | > 100 | > 100 | > 100 | 75 µM and > 100 µM | > 100 | 75 µM and > 100 µM | > 100 | > 100 | > 100 | > 100 |  | 
N#Cc1c(-c2ccc(Cl)cc2)c(-c2ccc(Cl)cc2)nn(CCOC(=O)CCC(=O)O)c1=O |  | 55.3 | 9.23 | 16.1 |  | 4.01 |  | 4.97 |  | > 85.3 |  | > 60 µM |  | > 75.7 µM |  | > 100 |  | 50 |  | 
CCN(CC)CCCNc1nc2ccccc2c2c(=O)c3cc(Cl)ccc3sc12 | 1.69 | 3.27 | 21.4 | 4.01 | 1.73 | 3.22 | 1.61 | 3.14 | 1.36 | 3.1 | 3.68 | 15.4 µM | 4.36 | 18.3 µM | 5.43 | 22.5 | 1.79 | 9.97 | 8.42 | 1.91
COc1cc(/C=C/C(=O)C(C(=O)/C=C/c2ccc(OC(=O)CCNc3nnc(C)s3)c(OC)c2)C(=O)CCNc2nnc(C)s2)ccc1OC(=O)CCNc1nnc(C)s1 | 2.58 | 9.51 | 6.67 | 3.2 | 1.65 | 3.81 | 2.47 | 5.86 | 1.98 | 4.47 | 2.49 | 10.2 µM | 6.19 | 34.5 µM | 2.64 | 8.31 | 1.62 | 3.67 | 2.51 | 1.77
CCCCCCCCCCCCCC(=O)OC(/C=C/C(C)C)C(O)C(O)C(OC)C(=O)NC1CCCCNC1=O (configuration not stated) | 1.56 | 3.93 | 14.6 | 4.13 | 1.22 | 3.97 | 4.25 | 4.8 | 0.65 | 5.15 |  | 4.39 µM | 4.63 | 9.46 µM | 6.37 | 6.5 |  | 4.98 |  | 5.64
O=c1oc2ccc(F)cc2c(=O)n1-c1ccc(Cl)cc1F | 2.8 | 8.85 | 0.796 | 10.8 | 0.563 | 2.82 | 1.26 | 10.3 | 0.532 | > 45.8 | 0.495 | 6.92 µM | 0.375 | 2.65 µM | 0.66 | 4.54 | 0.264 | 2.52 | 0.24 | 2.89
Cn1cnc([N+](=O)[O-])c1Sc1nc2cccnc2s1 |  | 28.1 | > 100 | 30.9 |  | 29.5 |  | 24.8 |  | 33 |  | 33.5 µM |  | 65.8 µM |  | 27.9 |  | 34.1 |  | 
CO/N=C(\COc1ccc2c(c1)oc(=O)c1cc(OC)ccc12)c1ccc(F)cc1 | 14.3 | 28.7 | 93.5 | 72.7 | 14.9 | 41.2 | 24.7 | 81.9 | 19.3 | 42.8 | 27.2 | > 100 µM | 13.4 | 27.1 µM | 45.5 | > 100 | 12.7 | 32.3 | 22.3 | 23.6
Oc1ccc2ccccc2c1C(c1ccc(Cl)cc1)c1c(O)ccc2ccccc12 |  | 12.4 | 9.36 | 6.34 |  | 9.36 |  | > 30.2 |  | 7.65 |  | 9.72 µM |  | 10.8 µM |  | 15.9 |  | 10.6 |  | 
O=C(Nc1cccc([N+](=O)[O-])c1)c1ccc2ccccc2c1O | 4.46 | > 100 | > 66.7 | > 100 | 5.27 | > 100 | 9 | > 78.3 | 13.8 | 46 | 12 | > 93 µM | 17 | > 100 µM | 2.42 | 7.34 | 3.35 | > 53 | 3.27 | 5.01
COc1ccc(Cn2cc3c(c2-c2ccc(O)cc2)CCc2cnoc2-3)cc1 | 0.695 | 19.1 | 0.766 | 12.9 | 0.422 | 14.7 | 0.395 | 21.6 | 0.578 | 23.6 | 1.16 | 23.2 µM | 0.221 | 0.676 µM | 13.7 | 30.6 | 0.653 | 18.7 | 0.203 | 0.602
COc1ccc(N(C)c2nc(Cl)nc3ccn(C)c23)cc1 | < 0.01 | > 100 | > 100 | > 100 | < 0.01 | > 100 | < 0.01 | > 100 | < 0.01 | > 100 | < 0.01 | > 100 µM | < 0.01 | > 100 µM | > 100 | > 100 | 0.139 | > 100 | < 0.01 | < 0.01
O=C(Nc1cccnc1)c1cccc([N+](=O)[O-])c1 | > 100 | > 100 | > 100 | > 100 | > 100 | > 100 | > 100 | > 100 | > 100 | > 100 | > 100 | > 100 µM | > 100 | > 100 µM | > 100 | > 100 | > 100 | > 100 | > 100 | > 100
CC(=O)Nc1ccc2c(c1)C(=O)c1cccc(F)c1-2 |  | > 100 | > 100 | > 100 |  | > 81.7 |  | > 80.1 |  | > 100 |  | > 100 µM |  | > 100 µM |  | > 100 |  | > 100 | 31.3 | > 100
O=c1[nH]ccc2nc(-c3ccc(CN4CCC(c5nc(-c6ccccn6)n[nH]5)CC4)cc3)c(-c3ccccc3)cc12 | 0.737 | 18.1 | 0.355 | > 100 | 17.2 | > 92.7 | 16.5 | > 100 | 0.0652 | > 100 | 32.1 | > 100 µM | 0.0534 | 7.75 µM | 14.8 | 51.3 | 0.975 | > 100 | < 0.0345 | 22.2
O=C1Nc2ccccc2/C1=C/c1ccccc1 |  | 28.4 | 30.5 | 30.1 |  | 27 |  | 35.4 |  | 33.1 |  | 28.5 µM |  | 33.8 µM |  | 29 |  | 25.3 |  | 
CC(C)(C)c1cn2cccc(C(=O)N3CCN(CC(=O)Nc4ccc(Cl)cc4C(=O)c4ccccc4Cl)CC3)c2n1 | 24.4 | 85.2 | 9.38 | 75.1 | 10.3 | 25.7 | 4.81 | 32 | 16.4 | 38.5 | 10.6 | 35.4 µM | 12.8 | 90.2 µM | 3.51 | 23.5 | 22.4 | 74.7 | 3.48 | 10.3
Oc1ccc2c3c1OC1C(=NN=C4CCC5(O)C6Cc7ccc(O)c8c7C5(CCN6CC5CC5)C4O8)CCC4(O)C(C2)N(CC2CC2)CCC314 (configuration not stated) |  | 66.2 | > 67.7 | 52.7 |  | 30.1 |  | > 100 |  | > 100 |  | > 59.9 µM |  | > 71.8 µM |  | 43.1 |  | > 100 |  | 
CC1CC(C)/C(=N/NC(N)=O)C(C(O)CC2CCC(=O)NC2=O)C1 (configuration not stated) | 3.46 | > 100 | 92.4 | > 100 | 3.04 | > 100 | 3.39 | > 100 | 2.64 | 56.5 | 1.99 | > 100 µM | 4.26 | > 100 µM | 3.48 | 50.4 | 2.33 | 34.3 | 4.94 | 5.07
CC1(C)N=C(N)N=C(N)N1c1ccc(OCC(=O)N2CCOCC2)c(Cl)c1 | 20.2 | > 100 | > 100 | > 100 | 0.667 | > 100 | > 100 | > 100 | 0.379 | 12.9 | 6.9 | > 100 µM | 10.3 | > 100 µM | > 100 | > 100 | > 100 | > 100 | > 100 | 9.78
C=CCC12CC(=O)C=C1CCC1(C2)OCCO1 (configuration not stated) |  | > 100 | > 100 | > 100 |  | > 100 |  | > 100 |  | > 100 |  | > 100 µM |  | > 100 µM |  | > 100 |  | > 100 |  | 
Cn1ccnc1C(=O)/C=C/c1ccc(C(=O)Nc2ccccc2O)cc1 | 1.98 | 4.64 | 6.18 | 4.26 | 0.866 | 2.64 | 1.42 | 5.49 | 1.97 | 4.88 | 2.79 | 10.1 µM | 0.918 | 8.58 µM | 2.51 | 13.3 | 1.24 | 2.5 | 2.07 | 2.29
O=C1Cc2ccccc2N1c1c(Cl)cccc1Cl |  | > 100 | > 100 | > 100 |  | > 100 |  | > 100 |  | > 100 |  | > 100 µM |  | > 100 µM |  | > 100 |  | > 100 |  | 
COc1cc(C2CC(c3ccc(Nc4ccnc5cc(Cl)ccc45)cc3)=NN2C=O)cc(OC)c1OC (configuration not stated) | 2.31 | 4.8 | 49.5 | > 100 | 3.21 | 9.61 | 3.56 | > 100 | 22.3 | > 100 | 4.37 | 42.4 µM | 5.19 | 32.5 µM | 2.84 | 8.28 | 4.96 | 21.3 | 15.3 | 5.52
COc1cc(C(=O)N2CCN(c3ccccc3OC)CC2)c(N)cc1OCc1ccccc1 | 45.6 | > 100 | 81.2 | > 100 | 20.7 | 42.8 | 34.9 | > 100 | 28.5 | > 100 | 30.5 | > 100 µM | 42.6 | > 100 µM | 39 | > 100 | 22.4 | > 100 | 30.6 | 40
CCC[CH2][Sn]1([CH2]CCC)[O]C(=O)c2cccc(OC)c2[O]1 | 0.554 | 1.91 | 0.465 | 2.15 | 0.494 | 1.69 | 0.698 | 2 | 0.755 | 2.15 | 0.47 | 1.71 µM | 0.112 | 1.26 µM | 0.199 | 0.537 | 0.806 | 2.07 | 0.21 | 0.99
N#CCC12CC=CCC1=C(O)C(=O)c1ccc(O)cc12 (configuration not stated) |  | > 100 | > 100 | > 100 |  | > 100 |  | > 100 |  | > 100 |  | > 100 µM |  | > 100 µM |  | > 100 |  | > 100 |  | 
Cc1cc(O)ccc1O | 21.2 | 75.8 | > 100 | > 100 | 16.9 | 32.9 | 16.6 | 34.8 | 16.6 | 31 | 14.4 | 27.8 µM | 24.1 | > 100 µM | 43.1 | > 100 | 13.4 | 26.2 | 79.9 | 73.6
